According to patent publication US20230397605A1, “METHODS FOR IMPROVING PLANT GROWTH AND CROP YIELD BY USING COMPOUNDS OF TRISULPHIDE OR TETRASULPHIDE” (UNIVERSITY OF IOWA RESEARCH FOUNDATION, priority 2020, published 2023):

How the values were obtained:
peas = conditions: cited from earlier work
radish = conditions: cited from earlier work
lettuce plants = conditions: cited from earlier work
Lettuce = assay: Growth of lettuce in nutrient-film technique hydroponic system (fresh weight of leafy head at harvest); assay type: in vivo, lettuce (buttercrunch); conditions: treatment day 42, harvest day 58, N=28 (control mean 36.13 g)
Procedure: Lettuce was grown in a nutrient-film technique hydroponic system. The seedlings were grown under LED light film with a 14 hour on time, and a 10 hour off time. The lettuce seeds were purchased from Johnny Selected Seeds. The seed variety was buttercrunch, ID 435 g. The nutrients used were Chem-Gro lettuce formula NPK with micronutrients. Calcium nitrate and magnesium sulfate were also added to the nutrients. The nutrients and the NAC-trisulfide were added to the nutrient bucket, Which was a 4 gallon bucket that recirculated the nutrient solution through the entire NFT system to bathe the roots of the lettuce plants with nutrients and water. An air stone with air pump was used in each nutrient bucket to provide aeration to the nutrient solution. […] The nutrient reservoirs were kept pH balanced and nutrient levels were kept steady. The nutrient loading measured in EC (electrical conductivity) would gradually increase as the water was consumed but would return to normal levels once water was added to return the buckets to the max volume of 4 gallons. The conductivity (EC) and pH were measured every 1 to 2 days. Nutrient was added as EC at 4 gallons would approach a value of 0.5 EC. The starting nutrient loading was 1.7 EC, The pH of the nutrient solution was balanced using phosphoric acid “pH down” solution. The pH of the nutrient solution ranged between 6.4-7.4.
The lettuce seeds were started in a separate flood tray. The seeds were sowed into an inert solid support (Oasis Horticubes) and the support absorbed water and nutrients like a sponge. The seedlings were then grown in the seeding hay for 33 days prior to transplant into the channels. At day 42. N-acteyl cysteine trisulfide (NAC trisulfide) was added to the nutrient of the lettuce plants. […]
The lettuce plants were harvested by cutting at the root boundary and discarding the roots along with the solid support. The leafy head of lettuce was then weighed to quantify the fresh weight of the lettuce reported in the graphs (see FIG. 1).

## C1COCCN1.COc1ccc(P(=S)(S)N2CCOCC2)cc1 (stereo not shown) [GYY-4137]
peas
  growth of plants: increased the growth
radish; milligram loadings applied
  harvest yield of radishes: doubled
radish; radish
  growth of plants: increased the growth
Lettuce plants
  growth of plants: increased the growth

## CC(=O)N[C@@H](CSSSC[C@H](NC(C)=O)C(=O)O)C(=O)O [NAC trisulfide, N-acetyl cysteine trisulfide]
Lettuce; group 2, 0.2449 g/4 gal nutrient reservoir
  Fresh Weight (g) Mean: 42.50 g
Lettuce; group 3, 0.7475 g/4 gal nutrient reservoir
  Fresh Weight (g) Mean: 51.44 g
Lettuce; group 4, 1.6112 g/4 gal nutrient reservoir
  Fresh Weight (g) Mean: 56.07 g
